Laboratory results published in paper PMC12095047, “Transport of phenoxyacetic acid herbicides by PIN-FORMED auxin transporters” (Nature Plants, 2025).
“And” between values parts separate entries of the source, which are not always exact repeats. Identical values can stand only once. Like-named read-outs stand apart in the source and are kept apart here.

What was measured:
[1] = molecular target: T1, PIN8 (Arabidopsis thaliana, UniProt Q9LFP6); assay: SSM electrophysiology, KD by inhibition of the NPA binding current; conditions: individual sensors
T1 construct: made in house
T1 sequence (Q9LFP6 1-367): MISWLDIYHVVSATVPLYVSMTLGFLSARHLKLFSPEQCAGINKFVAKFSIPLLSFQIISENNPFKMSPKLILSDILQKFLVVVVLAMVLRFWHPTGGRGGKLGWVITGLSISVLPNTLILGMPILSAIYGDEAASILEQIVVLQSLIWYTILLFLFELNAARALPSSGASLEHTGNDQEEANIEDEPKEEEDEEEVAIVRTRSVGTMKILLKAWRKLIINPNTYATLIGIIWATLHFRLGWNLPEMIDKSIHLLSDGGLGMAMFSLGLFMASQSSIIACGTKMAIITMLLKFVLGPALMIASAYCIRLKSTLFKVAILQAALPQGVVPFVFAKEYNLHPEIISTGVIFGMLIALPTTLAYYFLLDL
Description: (§1) SSM, using a SURFE2R N1 from Nanion Technologies, was conducted as described. In brief, soy polar lipid mix (38% phosphatidyl choline, 30% phosphatidyl ethanolamine, 18% phosphatidyl inositol, 7% phosphatidic acid and 7% other soy lipids) and 1-palmitoyl-2-oleoyl-sn-glycero-3-phosphocholin were purchased from Avanti. Liposomes were prepared in Ringer solution without Ca^2+ (115 mM NaCl, 2.5 mM KCl, 1 mM NaHCO3, 10 mM HEPES pH7.4, 1 mM MgCl2) and homogenized using a Lipsofast (Avestin) with a […]. Triton X-100 was added to the liposomes to a final concentration of 1% (v/v). Protein was added to liposomes to a calculated lipid-to-protein ratio (LPR) of 10 unless stated otherwise. The detergent was removed using 400 mg ml^−1 Bio Beads (BioRad) overnight at 4 °C in a rotary shaker. Proteoliposomes were frozen in liquid nitrogen and kept at −80 °C until use. Proteoliposomes were diluted 1:5 in Ringer solution without Ca^2+, sonicated five times and then applied to the sensors by centrifugation (30 min, 3,000 g, 4 °C). Non-activating buffer was Ringer solution without Ca^2+ as described unless specified otherwise, and activating buffer contained the substrate of interest. In most instances we used a single-solution exchange experiment. In this case proteoliposomes, immobilized on the supported membrane, are kept in non-activating buffer as specified. At the beginning of the experiment the non-activating buffer is replaced with fresh identical non-activating buffer, and after 1 s, activating buffer (same buffer containing substrate) is added. After another second, the buffer is replaced with non-activating buffer again. Current response is recorded throughout the entire 3 s. For competition or inhibition, the respective compound was present in non-activating and activating solutions. Each experiment was performed on at least two individual sensors. On each sensor each measurement consists of three technical replicates where the mean is calculated. KD values were determined as described previously. Briefly, the binding current induced by 100 µM NPA was recorded in the presence of different concentrations of the substrate under investigation ranging between 0 µM and 1,000 µM present in the activating solution and the non-activating solution (Extended Data Fig. 5b). […] The maximum peak current was then plotted as a function of the concentration of the substrate under investigation and plotted against the degree of inhibition and fitted with a one-site binding model using GraphPad Prism V10.4.1 The half maximal concentration corresponds to the KD of the substrate under investigation.

[2] = molecular target: T2, PIN8 I51Y (Arabidopsis thaliana, UniProt Q9LFP6, I51Y); assay type: biochemical; conditions: Michaelis–Menten fit
T2 construct: made in house
Description: as §1
(§2) The protocol for expression and purification of AtPIN8 protein (Uniprot: Q9LFP6) in lauryl maltose neopentyl glycol was described previously. All point mutants were generated using Q5 Site-Directed mutagenesis kit (New England Biolabs). The C-flat Holey Carbon grids (CF-1.2/1.3, Cu-300 mesh) were glow-discharged for 45 s at 15 mA in a GloQube Plus (Quorum). […] After 1 h of incubation on ice, the sample was centrifuged at 16,000 g for 15 min before blotting to remove precipitation. A drop of 4 µl of each sample was applied to the glow-discharged grids, blotted with a Vitrobot Mark IV (ThermoFisher Scientific) using the following settings (temperature 4 °C, 100% humidity, blot time of 4 s, blot force −1) and vitrified in liquid ethane.

[3] = molecular target: T3, PIN8 N223A (Arabidopsis thaliana, UniProt Q9LFP6, N223A); assay type: biochemical; conditions: PIN8 N223A, Michaelis–Menten fit
T3 construct: made in house
Description: as §1, §2

[4] = molecular target: T4, PIN8 S146A (Arabidopsis thaliana, UniProt Q9LFP6, S146A); assay type: biochemical; conditions: for Peak current: individual sensors
T4 construct: made in house
Description: as §1, §2

[5] = molecular target: T5, PIN8 S266A (Arabidopsis thaliana, UniProt Q9LFP6, S266A); assay type: biochemical; conditions: for Peak current: S266A, individual sensors
T5 construct: made in house
Description: as §1, §2

[6] = molecular target: T6, PIN8 S55A (Arabidopsis thaliana, UniProt Q9LFP6, S55A); assay type: biochemical; conditions: for Peak current: S55A, individual sensors
T6 construct: made in house
Description: as §1, §2

[7] = molecular target: T7, PIN8 S55A/S146A (Arabidopsis thaliana, UniProt Q9LFP6, S146A/S55A); assay type: biochemical; conditions: Michaelis–Menten fit
T7 construct: made in house
Description: as §1, §2

[8] = molecular target: T8, PIN8 Y150A (Arabidopsis thaliana, UniProt Q9LFP6, Y150A); assay type: biochemical; conditions: for Peak current: Y150A, individual sensors
T8 construct: made in house
Description: as §1, §2

[9] = molecular target: T9, PIN8 Y150F (Arabidopsis thaliana, UniProt Q9LFP6, Y150F); assay type: biochemical
T9 construct: made in house
Description: as §1, §2

[10] = read-out: EC50 of peak current response

T9 sequence (Q9LFP6 whole entry Y150F): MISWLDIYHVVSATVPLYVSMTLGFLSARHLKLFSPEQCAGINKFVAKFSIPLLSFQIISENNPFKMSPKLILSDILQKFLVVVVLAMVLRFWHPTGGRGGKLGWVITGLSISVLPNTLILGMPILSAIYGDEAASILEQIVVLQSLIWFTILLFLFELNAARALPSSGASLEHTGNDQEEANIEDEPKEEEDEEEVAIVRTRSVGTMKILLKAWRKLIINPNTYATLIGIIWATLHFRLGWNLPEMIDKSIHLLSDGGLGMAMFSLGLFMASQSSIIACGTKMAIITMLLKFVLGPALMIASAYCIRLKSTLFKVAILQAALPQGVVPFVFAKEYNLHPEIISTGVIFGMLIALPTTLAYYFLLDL
T8 sequence (Q9LFP6 whole entry Y150A): as the sequence (Q9LFP6 whole entry Y150F) above, with F150A counted along it
T5 sequence (Q9LFP6 whole entry S266A): as the sequence (Q9LFP6 whole entry Y150F) above, with F150Y, S266A counted along it
T6 sequence (Q9LFP6 whole entry S55A): as the sequence (Q9LFP6 whole entry Y150F) above, with S55A, F150Y counted along it
T4 sequence (Q9LFP6 whole entry S146A): as the sequence (Q9LFP6 whole entry Y150F) above, with S146A, F150Y counted along it
T2 sequence (Q9LFP6 whole entry I51Y): as the sequence (Q9LFP6 whole entry Y150F) above, with I51Y, F150Y counted along it
T7 sequence (Q9LFP6 whole entry S55A/S146A): as the sequence (Q9LFP6 whole entry Y150F) above, with S55A, S146A, F150Y counted along it
T3 sequence (Q9LFP6 whole entry N223A): as the sequence (Q9LFP6 whole entry Y150F) above, with F150Y, N223A counted along it

O=C(O)Cc1c[nH]c2ccccc12 [IAA, indole-3-acetic acid]
inhibition at 5 µM ([1]; read-out: Rel. Inhibition of NPA peak currents, 5 µM substrate, 100 µM NPA): 14.1% | inhibition at 50 µM ([1]; read-out: Rel. Inhibition of NPA peak currents, 50 µM substrate, 100 µM NPA): 57% | inhibition at 100 µM ([1]; read-out: Rel. Inhibition of NPA peak currents, 100 µM substrate, 100 µM NPA): 77.9% | inhibition at 250 µM ([1]; read-out: Rel. Inhibition of NPA peak currents, 250 µM substrate, 100 µM NPA): 84.7% | inhibition at 500 µM ([1]; read-out: Rel. Inhibition of NPA peak currents, 500 µM substrate, 100 µM NPA): 94.3% | inhibition at 1000 µM ([1]; read-out: Rel. Inhibition of NPA peak currents, 1000 µM substrate, 100 µM NPA): 84.7% | Kd ([1]; sheet F2A (Fig. 2a, KD of substrate binding), read-out: Peak current): 38.8 µM and 54 µM and 24.3 µM | Imax [2]: 2 ± 0.2 nA | EC50 [2, 10]: 547 ± 171 µM | Imax [3]: 2 ± 0.8 nA | EC50 ([3]; No transport = model could not be fit, read-out: EC50 of peak current response): 444 ± 205 µM | Imax ([4]; PIN8 S146A, Michaelis–Menten fit): 8 ± 2 nA | EC50 ([4]; PIN8 S146A, Michaelis–Menten fit, read-out: EC50 of peak current response): 498 ± 191 µM | Peak current ([4]; S146A, 5 µM substrate): 0.4304 nA and 0.01967 nA and 0.2252 nA | Peak current ([4]; S146A, 20 µM substrate): 0.857 nA and 0.324 nA and 0.6461 nA | Peak current ([4]; S146A, 50 µM substrate): 1.458 nA and 0.6503 nA and 1.2348 nA | Peak current ([4]; S146A, 100 µM substrate): 2.021 nA and 0.7074 nA and 1.578 nA | Peak current ([4]; S146A, 500 µM substrate): 4.698 nA and 2.244 nA and 4.077 nA | Peak current ([4]; S146A, 1000 µM substrate): 6.329 nA and 3.684 nA and 6.024 nA | Peak current ([4]; S146A, 2000 µM substrate): 7.444 nA and 4.338 nA and 6.988 nA | fold-change difference to the respective EC50 of wildtype PIN8 ([4]; S146A, direction (higher or lower affinity) shown by colour only): ~ 2 fold | Imax ([5]; PIN8 S266A, Michaelis–Menten fit): 4 ± 0.6 nA | EC50 ([5]; PIN8 S266A, Michaelis–Menten fit, read-out: EC50 of peak current response): 578 ± 183 µM | Peak current ([5]; 5 µM substrate): 0.2201 nA and 0.07526 nA and 0.1062 nA | Peak current ([5]; 20 µM substrate): 0.3015 nA and 0.4448 nA and 0.2134 nA | Peak current ([5]; 50 µM substrate): 0.4871 nA and 0.8571 nA and 0.3384 nA | Imax ([6]; PIN8 S55A, Michaelis–Menten fit): 6 ± 1 nA | EC50 ([6]; PIN8 S55A, Michaelis–Menten fit, read-out: EC50 of peak current response): 213 ± 58 µM | Peak current ([6]; 5 µM substrate): 0.3417 nA and 0.3232 nA and 0.2318 nA and 0.3509 nA | Peak current ([6]; 20 µM substrate): 1.04 nA and 0.8246 nA and 0.4664 nA and 0.4596 nA | Peak current ([6]; 50 µM substrate): 1.937 nA and 1.54 nA and 0.9207 nA and 0.8323 nA | Peak current ([6]; 100 µM substrate): 2.888 nA and 2.325 nA and 1.514 nA and 1.385 nA | Peak current ([6]; 500 µM substrate): 5.317 nA and 4.4508 nA and 3.048 nA and 3.044 nA | Peak current ([6]; 1000 µM substrate): 6.258 nA and 5.302 nA and 3.739 nA and 3.804 nA | Peak current ([6]; 2000 µM substrate): 7.104 nA and 6.138 nA and 4.476 nA and 4.5392 nA | Imax [7]: 7 ± 2 nA | EC50 [7, 10]: 341 ± 128 µM | Imax ([8]; PIN8 Y150A, Michaelis–Menten fit): 4 ± 0.3 nA | EC50 ([8]; PIN8 Y150A, Michaelis–Menten fit, read-out: EC50 of peak current response): 1210 ± 298 µM | Peak current ([8]; 5 µM substrate): 0.07393 nA and 0.1605 nA and 0.184 nA | Peak current ([8]; 20 µM substrate): 0.162 nA and 0.2178 nA and 0.2518 nA | Peak current ([8]; 50 µM substrate): 0.2702 nA and 0.3405 nA and 0.3285 nA | Peak current ([8]; 100 µM substrate): 0.09437 nA and 0.3629 nA and 0.1017 nA | Peak current ([8]; 500 µM substrate): 0.8668 nA and 1.165 nA and 0.6916 nA | Peak current ([8]; 1000 µM substrate): 1.921 nA and 2.062 nA and 1.677 nA | Peak current ([8]; 2000 µM substrate): 2.244 nA and 2.472 nA and 1.95 nA | Imax ([9]; PIN8 Y150F, Michaelis–Menten fit): 6 ± 2 nA | EC50 ([9]; PIN8 Y150F, Michaelis–Menten fit, read-out: EC50 of peak current response): 452 ± 32 µM | fold-change difference to the respective EC50 of wildtype PIN8 ([9]; Y150F, direction shown by colour only): ~ 2 fold
